The test system of data set [1] is IL-1β stimulated IL-8 secretion in human umbilical vein endothelial cells (HUVECs). Kind of data set: IL-1β stimulated IL-8 secretion assay in HUVEC cells (ELISA). Format: cell-based. The following applies: 0.5 ng/ml IL-1β; for inhibition at 1 µM: 1 μM compound, read-out: % Inhib at 1 μM; for inhibition at 1 µM / inhibition at 10 µM: IL-8 secretion; for inhibition at 10 µM: 10 μM compound, read-out: % Inhib at 10 μM; for IC50: 24 h, IL-8 ELISA. The procedure:
Anti-inflammatory screening was established in human umbilical vein endothelial cells (HUVECs) to screen the test compounds for their ability to inhibit IL-1β stimulated IL-8 secretion from these cells. The level of secreted IL-8 in the HUVEC media was detected using a Quantikine™ Sandwich Enzyme-Linked Immunosorbent Assay (ELISA) from R&D Systems.
Cells and media were obtained from Cascade Biologics™ via Invitrogen. HUVECs were seeded in sterile 96-well tissue culture treated plates (0.1 ml per well, containing 2,400 cells; 8000 cells/cm^2). The seeded plates were incubated in a humidified incubator at 37 C/5% CO2. After 24 h, the media was replaced with fresh media (80 μl). The test compounds were serially diluted from 10 mM DMSO stocks with media to obtain dilutions 10× the final concentration. The compounds (10 μl) were added to the plates 30 min prior to the addition of 10 μl of 5 ng/ml stimulant IL-1β (final concentration 0.5 ng/ml). After incubating for 24 h, the plates were centrifuged at 200×g for 5 min (room temperature) and the media from each well transferred to a 96-well storage plate. Basal samples were assayed neat, but media from IL-1β stimulated cells was diluted in the calibrator diluent accompanying the IL-8 ELISA kit. The ELISA was performed according to the manufacturer's instructions.
A dose of 0.5 ng/ml IL-1β was chosen as a submaximal dose to observe the inhibition of IL-8 secretion with the test compounds.
Test compounds were initially screened at 10^−5M and 10^−6M for their ability to inhibit IL-1β stimulated IL-8 secretion (Table 1).

Data set [2] relates to IL-1β stimulated IL-6 secretion in HUVECs. Kind of data set: IL-1β stimulated IL-6 secretion in HUVECs (ELISA). The data set is classed as cell-based, human. The following applies: increasing doses of compound. As for the experimental part: (§1) The HUVEC IL1β secretion assay was performed using a 24-well plate format similar to that described for IL-8 secretion above (0.5 ml per well containing 16,000 cells; 8000 cells/cm^2). Media was collected from untreated cells (basal) and cells treated with either 0.5 ng/ml IL-1β only, 10^−5M compound (2) only or IL-1β stimulated plus compound (2). Media from 2 wells were pooled for each condition.
(§2) Using the results of the protein array, the effect of compound (2) on the secretion of five other cytokines stimulated by IL-1β was also measured in HUVECs. These included: GROα, MCP-1, GM-CSF, sICAM-1 and IL-6. The HUVECs were seeded in sterile 24-well tissue culture treated plates (as described above). The cells were treated with increasing doses of compound (2) prior to stimulating with IL-1β as described above. All cytokines were measured using the appropriate Quantikine® Sandwich ELISA from R&D Systems according to the manufacturer's instructions.

The subject of data set [3] is IL-1β stimulated MCP-1 secretion in HUVECs. The data set can be described thus: IL-1β stimulated MCP-1 secretion in HUVECs (ELISA). The data set is classed as cell-based, human. The following applies: increasing concentration of compound. The procedure:
as §1, §2
(In general: In an ELISA, binding on a coated surface is turned into a signal by an enzyme label.)

The test system of data set [4] is IL-1β stimulated GM-CSF secretion in HUVECs. Kind of data set: IL-1β stimulated GM-CSF secretion in HUVECs (ELISA). The data set is classed as cell-based, human. The following applies: increasing doses of compound. As for the experimental part:
as §1, §2

A short description of data set [5]: Solubility of the topical formulation in vehicle acetone:ethanol/1:1. Format: physicochemical. The following applies: 150, 50 and 15 mg/ml in acetone:ethanol/1:1.
The subject of data set [6] is BALB/c mice, oxazolone-induced ear edema. The data set can be described thus: Mouse allergic contact dermatitis model induced by oxazolone, topical application, ear swelling. The following applies: for effect on inflammation in mouse allergic contact dermatitis model: topical application, 0.3-3 mg/ear x2, result in words. Format: in vivo. As for the experimental part:
BALB/c derived male mice, weighing 23±2 g were housed in individually ventilated cages racks (IVC Racks, 36 Mini Isolator systems) throughout the experiment. Five mice per group were kept in a cage (in cm, 26.7 length×20.7 width×14.0 height) and maintained under controlled temperature (21-23° C.) and humidity (50%-70%) with 12-hour light/dark cycles. The animals were given free access to sterilized lab chow and reverse osmosis (RO) water ad libitum. All aspects of this work, i.e. housing, experimentation and disposal of animals, are performed in general accordance with the Guide for the Care and Use of Laboratory Animals (National Academy Press, Washington, D.C., 1996).
Compound (2) was prepared as 150, 50 and 15 mg/ml in vehicle, acetone:ethanol/1:1. The preshaven abdomens of five groups of 5 BALB/c test mice were sensitized by application of 100 μL of 1.5% oxazolone solution dissolved in acetone. Seven days after the initial sensitization, test substance (0.3, 1 and 3 mg in 20 μl/ear) and vehicle (acetone:ethanol/1:1, 20 μL/ear) were each administered topically to the anterior and posterior surfaces of the right ear 30 minutes before and 15 minutes after challenge by the second application of oxazolone (1% in acetone, 20 μL/ear). As a positive control, dexamethasone (0.1 mg/ear) was administered topically using the same treatment regime as the test compound. Twenty-four hours after the second application of oxazolone, the ear thickness of each mouse was measured with a Dyer model micrometer gauge. Ear edema was calculated by subtracting the thickness of the left ear (normal control) from the right ear (treated ear). Percent inhibition was calculated according to the formula: [(Ic−It)/Ic]×100%, where Ic and It refer to increase of ear thickness (mm) in control and treated mice, respectively. A 30 percent or more (30%) inhibition in ear swelling relative to the vehicle control is considered significant and indicates possible anti-inflammatory activity.

In data set [7] the test system is IL-1β stimulated GROα secretion in HUVECs. The data set can be described thus: IL-1β stimulated GROα secretion in HUVECs (ELISA). The following applies: increasing concentration of compound. The data set is classed as cell-based, human. The procedure: as §1, §2
For data set [8], the system named is IL-1β stimulated IL-8 secretion in human umbilical vein endothelial cells (HUVECs). Kind of data set: IL-1β stimulated IL-8 secretion assay in HUVEC cells (ELISA). The data set is classed as cell-based. The following applies: 24-well format, increasing doses.

Turning to `NC(=O)c1cc(-c2cccnc2)n2c1CCCC2` [Compound 1, 3-pyridin-3-yl-5,6,7,8-tetrahydro-indolizine-1-carboxamide], in data set [1], the inhibition at 1 µM was determined as 31.8% and the inhibition at 10 µM came out at 34.7%.
By IC50 is commonly meant the concentration that inhibits the measured activity by half. Lower therefore signals greater potency. On to `NC(=O)c1c(Cl)c(-c2cccnc2)n2c1CCCC2` [Compound 2, 2-Chloro-3-pyridin-3-yl-5,6,7,8-tetrahydro-indolizine-1-carboxamide], for which the “effect on IL-1β stimulated IL-6 levels” value in data set [2] is reported as “increased IL-6 levels further”. In addition, in data set [3], the “effect on IL-1β stimulated MCP-1” value is reported as “little effect”. Moreover, the “effect on IL-1β stimulated GM-CSF levels” value in data set [4] is listed as “dose dependently decreased”. The solubility of formulation result in data set [5] is given as “not completely soluble”. Further, the “inhibition of ear swelling relative to vehicle control” value is 25% in data set [6] (0.3 mg/ear x2 topical, 30 min before and 15 min after oxazolone challenge, measured at 24 h); 29% in data set [6] (1 mg/ear x2 topical, 30 min before and 15 min after oxazolone challenge, measured at 24 h); 40% in data set [6] (3 mg/ear x2 topical, 30 min before and 15 min after oxazolone challenge, measured at 24 h). The “effect on inflammation in mouse allergic contact dermatitis model” value in data set [6] (listed as compound 2) is “not as potent as dexamethasone”; in data set [6] (listed as compound (2)) it was “dose dependently inhibited inflammation”. The “reduction of IL-1β stimulated GROα levels” value in data set [7] is recorded as about 25%. This compound also yielded an IC50 in data set [1] of 350 nM. Besides, in data set [1], the inhibition at 1 µM came out at 49.4%. The inhibition at 10 µM in data set [1] worked out at 59.5%. Moreover, in data set [8], the “effect on IL-1β stimulated IL-8 secretion” value was “inhibited IL-8 and GM-CSF to a similar extent”.
`Cc1ccncc1-c1cc(C#N)c2n1CCCC2` [Compound 3, 3-(4-Methyl-pyridin-3-yl)-5,6,7,8-tetrahydro-indolizine-1-carbonitrile]: in data set [1], the inhibition at 1 µM is 34.4% and the inhibition at 10 µM was found to be 35%.
In the case of `Cc1ccncc1-c1cc(C(N)=O)c2n1CCCC2` [Compound 4, 3-(4-Methyl-pyridin-3-yl)-5,6,7,8-tetrahydro-indolizine-1-carboxylic acid amide], in data set [1], the inhibition at 1 µM is 15.9% and the inhibition at 10 µM was 30.8%.
`NC(=O)c1c(Cl)c(-c2cccnc2)n2c1C(O)CCC2` (stereo not shown) [Compound 5, 2-Chloro-8-hydroxy-3-pyridin-3-yl-5,6,7,8-tetrahydro-indolizine-1-carboxylic acid amide]: in data set [1], the IC50 was 760 nM, the inhibition at 1 µM came to 29% and the inhibition at 10 µM was 52.4%.
As to `N#Cc1c(Cl)c(-c2cccnc2)n2c1C(O)CCC2` (stereo not shown) [Compound 6, 2-Chloro-8-hydroxy-3-pyridin-3-yl-5,6,7,8-tetrahydro-indolizine-1-carbonitrile], in data set [1], the inhibition at 1 µM came out at 52.2% and the inhibition at 10 µM amounted to 21.8%.
As for `COC1CCCn2c(-c3cccnc3)c(Cl)c(C(N)=O)c21` (stereo not shown) [Compound 7, 2-Chloro-8-methoxy-3-pyridin-3-yl-5,6,7,8-tetrahydro-indolizine-1-carboxylic acid amide], in data set [1], the inhibition at 1 µM worked out at 1.4% and the inhibition at 10 µM came to 32.1%.
For `Cc1ccncc1-c1c(Cl)c(C#N)c2n1CCCC2` [Compound 8, 2-Chloro-3-(4-Methyl-pyridin-3-yl)-5,6,7,8-tetrahydro-indolizine-1-carbonitrile], in data set [1], the inhibition at 1 µM is 5.5% and the inhibition at 10 µM worked out at 39.6%.
Regarding `Cc1ccncc1-c1c(Cl)c(C(N)=O)c2n1CCCC2` [Compound 9, 2-Chloro-3-(4-methyl-pyridin-3-yl)-5,6,7,8-tetrahydro-indolizine-1-carboxylic acid amide], in data set [1], the IC50 stood at 510 nM, the inhibition at 1 µM is 42.2% and the inhibition at 10 µM is 49.6%.
Regarding `N#Cc1c(Cl)c(-c2cccnc2)n2c1C(=O)C(Cl)(Cl)CC2` [Compound 10, 2,7,7-Trichloro-8-oxo-3-pyridin-3-yl-5,6,7,8-tetrahydro-indolizine-1-carbonitrile], in data set [1], the inhibition at 1 µM came to 18.8% and the inhibition at 10 µM worked out at 35.7%.
Regarding `NC(=O)c1c(Cl)c(-c2cccnc2)n2c1C(=O)CCC2` [Compound 11, 2-Chloro-8-oxo-3-pyridin-3-yl-5,6,7,8-tetrahydro-indolizine-1-carboxylic acid amide], in data set [1], the inhibition at 1 µM came to 32.9% and the inhibition at 10 µM is 31.7%.
In the case of `NC(=O)c1c(Cl)c(-c2cccnc2)n2c1C=CCC2` [Compound 12, 2-Chloro-3-pyridin-3-yl-5,6-dihydro-indolizine-1-carboxylic acid amide], in data set [1], inhibition was half-maximal at 1600 nM (IC50), the inhibition at 1 µM is 22.7% and the inhibition at 10 µM is 52.7%.
With `C[C@@H]1C[C@H]2[C@@H]3CCC4=CC(=O)C=C[C@]4(C)[C@@]3(F)[C@@H](O)C[C@]2(C)[C@@]1(O)C(=O)CO` [dexamethasone, reference compound], in data set [6] (0.1 mg/ear topical, same regime, positive control), the “inhibition of ear swelling relative to vehicle control” value was 72%.
